From US11773062B2, “Deuterated compounds” (priority 2021, dated 2023)
Where two headings read alike, the source gives them in different places.

Experiments:
CYP2D6 [1] = target: T1, CYP2D6 (Homo sapiens, UniProt P10635); details: for intrinsic clearance, CYP isoform 2D6: human, recombinant enzyme, pH 7.4
Protocol: (§4) The CYPs used in this study are heterologously expressed in E. coli and purchased as individualised forms (CYP bactosomes) from CYPEX. Bactosomes contain recombinant CYP isoenzymes combined with CYP reductase leading to a higher specific activity than liver microsomes.
(§5) Phosphate buffer is prepared at 0.1 M, pH 7.4 by combining 0.1 M Na2HPO4 and 0.1 M KH2PO4 solutions.
(§6) Nicotinamide adenine dinucleotide 2′-phosphate reduced tetrasodium salt hydrate (NADPH) is prepared at 10 m<in 0.1 M phosphate buffer (pH 7.4).
(§7) The individual CYP bactosomes are thawed at room temperature undiluted to 200 pmol/mL and 0.1 M phosphate buffer.
(§8) Standard final incubation conditions are 1-3 μM compound in a buffer containing 100 pmol/mL CYP bactosome, 1% (v/v) DMSO.
(§9) The elimination rate constant (k) is calculated using the slope of a ln (MS peak area or response—if internal standard is used) vs. time plot of the test compounds and markers.
(§10) Intrinsic clearance in μL/min/nmol CYP is calculated using the following equation: Clint=−1000 k/CYP concentration
(§11) Projected CYP isoform intrinsic clearance accounting for estimated CYP abundance in human liver microsomes (μL/min/mg microsomal protein)* is calculated using the following equation: Projected set isoform intrinsic clearance=Estimated CYP abundance*Clint * Estimated CYP abundance is taken as an average from three literature references 1, 2 3 and the abundances used are as follows (nmol CYP/mg Human Liver Microsomal Protein):

CYP2D6 [2] = target: T1, CYP2D6; test: in vitro; details: recombinant enzyme, pH 7.4
Protocol: as §4, §5, §6, §7, §8, §9, §10, §11

CYP1A2 = target: T2, CYP1A2 (Homo sapiens, UniProt P05177); test: in vitro
T2 sequence (P05177 1-516): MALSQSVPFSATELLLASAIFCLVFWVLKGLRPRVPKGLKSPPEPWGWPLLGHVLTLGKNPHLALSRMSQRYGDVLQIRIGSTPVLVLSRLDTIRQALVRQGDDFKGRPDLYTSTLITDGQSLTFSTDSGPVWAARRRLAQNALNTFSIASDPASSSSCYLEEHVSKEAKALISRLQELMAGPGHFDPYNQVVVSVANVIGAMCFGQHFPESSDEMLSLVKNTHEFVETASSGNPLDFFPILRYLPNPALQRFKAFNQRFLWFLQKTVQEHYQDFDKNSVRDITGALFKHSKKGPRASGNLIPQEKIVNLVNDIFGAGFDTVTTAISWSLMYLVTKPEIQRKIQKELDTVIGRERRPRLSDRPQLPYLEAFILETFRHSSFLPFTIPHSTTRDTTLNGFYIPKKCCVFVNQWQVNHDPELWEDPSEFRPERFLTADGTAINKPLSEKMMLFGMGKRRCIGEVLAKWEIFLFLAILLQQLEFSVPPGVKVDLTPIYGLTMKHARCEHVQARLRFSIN
Protocol: (§1) Samples were taken at predetermined time points.
(§2) Samples were then centrifuged at −4° C.
(§3) Positive control markers are as specified in Table 11.

CYP2C19 = CYP2C19 (Homo sapiens, UniProt P33261); test: in vitro; details: for substrate for CYP2C19: CYP phenotyping; for projected scaled intrinsic clearance, CYP isoform 2C19: scaled by estimated CYP abundance in human liver microsomes (0.009 nmol CYP/mg)
Protocol: as §1, §2, §3

CYP2C9 = CYP2C9 (Homo sapiens, UniProt P11712); test: in vitro
Protocol: as §1, §2, §3

CYP3A4 = CYP3A4 (Homo sapiens, UniProt P08684); test: in vitro
Protocol: as §1, §2, §3

[3] = test system: mouse (male CD-1) hepatocytes; test: In vitro mouse hepatocytic intrinsic clearance; details: mouse CD-1 hepatocytes 0.367 million cells/mL, 5 μM (Table 8)
CYP2B6 = target: T3, CYP2B6 (Homo sapiens, UniProt P20813); test: in vitro; details: E. coli CYPEX membranes, 100 pmol/mL CYP
T3 sequence (P20813 1-491): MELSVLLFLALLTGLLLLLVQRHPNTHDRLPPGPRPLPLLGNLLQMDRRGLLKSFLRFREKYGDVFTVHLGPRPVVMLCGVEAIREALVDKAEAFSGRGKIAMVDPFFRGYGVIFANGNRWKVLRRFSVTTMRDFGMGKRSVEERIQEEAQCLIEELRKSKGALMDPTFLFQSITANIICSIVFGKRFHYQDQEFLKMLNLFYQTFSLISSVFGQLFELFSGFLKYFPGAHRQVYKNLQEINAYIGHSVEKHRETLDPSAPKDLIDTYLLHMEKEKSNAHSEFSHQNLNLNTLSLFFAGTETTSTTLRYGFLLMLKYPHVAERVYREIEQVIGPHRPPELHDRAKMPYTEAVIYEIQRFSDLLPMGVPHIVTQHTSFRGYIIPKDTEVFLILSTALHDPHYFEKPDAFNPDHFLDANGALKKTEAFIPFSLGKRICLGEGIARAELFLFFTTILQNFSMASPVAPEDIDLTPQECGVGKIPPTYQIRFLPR
Protocol: as §1, §2, §3

CYP3A5 = CYP3A5 (Homo sapiens, UniProt P20815); test: in vitro; details: E. coli CYPEX membranes, 100 pmol/mL CYP
Protocol: as §1, §2, §3

CYP2C8 = target: T4, CYP2C8 (Homo sapiens, UniProt P10632); test: in vitro; details: E. coli CYPEX membranes, 100 pmol/mL CYP
T4 sequence (P10632 1-490): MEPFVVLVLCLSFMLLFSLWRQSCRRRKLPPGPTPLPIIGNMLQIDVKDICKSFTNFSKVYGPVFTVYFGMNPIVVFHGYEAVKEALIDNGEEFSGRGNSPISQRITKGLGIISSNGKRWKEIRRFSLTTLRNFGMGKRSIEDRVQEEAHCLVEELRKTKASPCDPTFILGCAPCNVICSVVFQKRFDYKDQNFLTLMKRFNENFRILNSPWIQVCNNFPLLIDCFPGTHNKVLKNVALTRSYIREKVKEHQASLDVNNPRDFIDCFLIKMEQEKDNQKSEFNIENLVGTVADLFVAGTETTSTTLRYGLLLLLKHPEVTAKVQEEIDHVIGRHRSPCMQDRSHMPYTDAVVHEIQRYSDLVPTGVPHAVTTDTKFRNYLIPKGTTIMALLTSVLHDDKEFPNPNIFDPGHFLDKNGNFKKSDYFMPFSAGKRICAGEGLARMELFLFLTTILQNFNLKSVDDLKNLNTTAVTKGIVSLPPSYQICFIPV
Protocol: as §1, §2, §3

[4] = test system: human (mixed gender) hepatocytes; test: In vitro intrinsic clearance in human hepatocytes with and without MAO-A/B inhibitor combination (first experiment); details: for % change in half-life, MAO inhibitors vs no inhibitors / % change in intrinsic clearance, MAO inhibitors vs no inhibitors: human hepatocytes (Table 5); for Intrinsic clearance, without inhibitors: without MAO-A/B inhibitor combination (Table 5)
Protocol: Standard final incubation conditions are 1 μM compound in buffer containing nominally ˜0.5 million viable cells/mL, ˜0.9% (v/v) acetonitrile (MeCN) and ˜0.1% (v/v) DMSO (specific assay concentrations outlined above, section 2).
Samples are then centrifuged at 4° C.

CYP2D6 [5] = target: T1, CYP2D6; test: CYP phenotyping, CYP bactosomes; details: for substrate for CYP2D6: CYP phenotyping; for half-life, CYP isoform 2D6 / intrinsic clearance, CYP isoform 2D6: E. coli CYPEX membranes, 100 pmol/mL CYP; for projected scaled intrinsic clearance, CYP isoform 2D6: scaled by estimated CYP abundance in human liver microsomes (0.012 nmol CYP/mg)
Protocol: as §4, §5, §6, §7, §8, §9, §10, §11

[6] = Human liver mitochondrial fraction intrinsic clearance of SPL026, SPL028i, SPL028iii, SPL028viii; assay type: in vitro ADME; details: 0.5 mg/mL human liver mitochondrial fraction (Table 10)
Description: Human Liver Mitochondrial (HLMt) fractions contain high quantities of MAO enzymes and therefore, provide a useful tool to measure the clearance of MAO substrates.

[7] = human, recombinant enzyme, pH 7.4
[8] = E. coli CYPEX membranes, 100 pmol/mL CYP
[9] = human hepatocytes, with 100 nM clorgyline + 100 nM deprenyl/selegiline (Table 3)
[10] = human hepatocytes, with MAO-A/B inhibitor combination (Table 5)

CYP2C9, sequence (P11712 whole entry): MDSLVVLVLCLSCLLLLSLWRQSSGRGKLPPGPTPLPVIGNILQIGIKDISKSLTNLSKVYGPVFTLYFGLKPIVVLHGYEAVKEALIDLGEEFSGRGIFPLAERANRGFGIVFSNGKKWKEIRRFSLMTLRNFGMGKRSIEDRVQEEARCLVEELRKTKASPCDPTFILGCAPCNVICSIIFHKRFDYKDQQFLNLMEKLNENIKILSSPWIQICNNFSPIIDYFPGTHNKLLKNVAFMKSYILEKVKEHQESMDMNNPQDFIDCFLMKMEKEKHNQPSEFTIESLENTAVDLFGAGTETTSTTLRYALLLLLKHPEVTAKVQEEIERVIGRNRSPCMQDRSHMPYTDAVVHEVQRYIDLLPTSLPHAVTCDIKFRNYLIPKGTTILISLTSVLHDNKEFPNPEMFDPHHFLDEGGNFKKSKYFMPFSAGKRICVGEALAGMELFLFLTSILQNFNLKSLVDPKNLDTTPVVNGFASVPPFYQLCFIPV
T1 sequence (P10635 whole entry, canonical isoform): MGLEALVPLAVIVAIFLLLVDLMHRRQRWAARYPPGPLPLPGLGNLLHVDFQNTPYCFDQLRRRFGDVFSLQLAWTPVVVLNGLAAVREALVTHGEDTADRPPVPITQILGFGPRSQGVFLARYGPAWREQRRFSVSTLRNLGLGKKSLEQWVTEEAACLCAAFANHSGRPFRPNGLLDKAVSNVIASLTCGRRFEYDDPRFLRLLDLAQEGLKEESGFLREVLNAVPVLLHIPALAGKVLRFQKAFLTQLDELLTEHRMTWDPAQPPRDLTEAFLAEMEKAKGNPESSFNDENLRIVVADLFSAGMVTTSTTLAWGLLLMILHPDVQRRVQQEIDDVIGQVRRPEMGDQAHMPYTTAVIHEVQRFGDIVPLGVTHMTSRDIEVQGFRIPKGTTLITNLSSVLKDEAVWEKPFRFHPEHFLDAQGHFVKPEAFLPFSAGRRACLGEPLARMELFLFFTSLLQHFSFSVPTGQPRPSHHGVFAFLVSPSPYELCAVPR
CYP3A5, sequence (P20815 whole entry): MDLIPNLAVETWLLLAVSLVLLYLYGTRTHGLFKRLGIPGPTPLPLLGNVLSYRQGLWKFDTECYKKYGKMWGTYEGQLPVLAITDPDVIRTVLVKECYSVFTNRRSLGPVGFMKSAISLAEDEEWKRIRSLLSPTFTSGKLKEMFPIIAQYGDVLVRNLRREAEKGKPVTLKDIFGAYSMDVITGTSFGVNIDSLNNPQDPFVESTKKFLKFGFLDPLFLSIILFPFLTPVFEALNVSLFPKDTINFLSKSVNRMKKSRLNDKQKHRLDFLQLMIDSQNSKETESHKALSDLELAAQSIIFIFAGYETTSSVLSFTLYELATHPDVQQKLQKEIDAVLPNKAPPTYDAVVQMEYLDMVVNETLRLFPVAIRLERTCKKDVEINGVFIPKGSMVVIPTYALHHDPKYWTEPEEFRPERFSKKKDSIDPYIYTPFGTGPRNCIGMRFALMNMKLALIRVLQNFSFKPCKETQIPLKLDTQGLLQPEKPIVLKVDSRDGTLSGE
CYP3A4, sequence (P08684 whole entry): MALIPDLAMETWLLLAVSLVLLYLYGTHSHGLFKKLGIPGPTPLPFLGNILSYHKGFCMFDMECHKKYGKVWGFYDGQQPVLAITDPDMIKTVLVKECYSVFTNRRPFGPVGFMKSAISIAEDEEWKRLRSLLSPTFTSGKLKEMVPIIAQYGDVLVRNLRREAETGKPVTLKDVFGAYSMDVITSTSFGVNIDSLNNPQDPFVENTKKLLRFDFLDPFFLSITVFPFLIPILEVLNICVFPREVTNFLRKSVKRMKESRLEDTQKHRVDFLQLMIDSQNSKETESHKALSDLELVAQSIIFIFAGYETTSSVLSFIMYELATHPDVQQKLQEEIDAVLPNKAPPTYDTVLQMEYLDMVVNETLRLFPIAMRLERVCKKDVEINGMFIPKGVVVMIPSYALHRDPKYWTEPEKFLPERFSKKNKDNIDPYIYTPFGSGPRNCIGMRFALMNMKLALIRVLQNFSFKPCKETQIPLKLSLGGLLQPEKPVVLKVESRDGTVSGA
CYP2C19, sequence (P33261 whole entry, canonical isoform): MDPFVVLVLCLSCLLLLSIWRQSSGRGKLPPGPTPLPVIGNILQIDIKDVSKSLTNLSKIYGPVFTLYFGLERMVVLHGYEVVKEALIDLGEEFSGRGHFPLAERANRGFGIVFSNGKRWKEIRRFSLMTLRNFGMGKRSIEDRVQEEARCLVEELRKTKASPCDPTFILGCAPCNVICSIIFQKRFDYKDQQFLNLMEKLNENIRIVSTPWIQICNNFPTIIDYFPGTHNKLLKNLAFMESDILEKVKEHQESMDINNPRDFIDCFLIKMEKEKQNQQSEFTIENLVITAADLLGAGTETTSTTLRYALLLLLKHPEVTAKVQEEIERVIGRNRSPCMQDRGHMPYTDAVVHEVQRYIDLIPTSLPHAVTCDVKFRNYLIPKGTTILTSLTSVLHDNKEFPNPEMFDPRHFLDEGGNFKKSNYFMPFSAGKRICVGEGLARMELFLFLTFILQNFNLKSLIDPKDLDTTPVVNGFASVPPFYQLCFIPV

| SMILES | intrinsic clearance, CYP isoform 2D6 (CYP2D6 [1]) [μL/min/nmol CYP] | half-life (CYP2D6 [2]) [min] | w Half-life [3] [h] | w Intrinsic clearance [3] [μL/min/million cells] | half-life, CYP isoform 1A2 (CYP1A2; [8]) [h] | intrinsic clearance, CYP isoform 1A2 (CYP1A2; [8]) [μL/min/nmol CYP] | half-life, CYP isoform 2B6 (CYP2B6) [h] | half-life, CYP isoform 3A5 (CYP3A5) [h] | intrinsic clearance, CYP isoform 3A5 (CYP3A5) [μL/min/nmol CYP] | half-life, CYP isoform 2C8 (CYP2C8) [h] | intrinsic clearance, CYP isoform 2C8 (CYP2C8) [μL/min/nmol CYP] | half-life, CYP isoform 2C19 (CYP2C19; [8]) [h] | intrinsic clearance, CYP isoform 2C19 (CYP2C19; [8]) [μL/min/nmol CYP] | projected scaled intrinsic clearance, CYP isoform 2C19 (CYP2C19) | half-life, CYP isoform 2C9 (CYP2C9; [8]) [h] | intrinsic clearance, CYP isoform 2C9 (CYP2C9; [8]) [μL/min/nmol CYP] | half-life, CYP isoform 3A4 (CYP3A4; [8]) [h] | intrinsic clearance, CYP isoform 3A4 (CYP3A4; [8]) [μL/min/nmol CYP] | half-life, CYP isoform 2D6 (CYP2D6 [5]) [h] | intrinsic clearance, CYP isoform 2D6 (CYP2D6 [5]) [μL/min/nmol CYP] | also measured |
| --- | --- | --- | --- | --- | --- | --- | --- | --- | --- | --- | --- | --- | --- | --- | --- | --- | --- | --- | --- | --- | --- |
| COc1ccc2c(c1)[C@]13CCCC[C@@H]1[C@H](C2)N(C)CC3 [Dextromethorphan] | 2686 | 3 |  |  |  |  |  |  |  |  |  |  |  |  |  |  |  |  |  |  |  |
| COc1ccccc1OCCNCC(O)COc1cccc2[nH]c3ccccc3c12 (stereo not drawn) [Carvedilol, reference compound] | 4483 | 2 |  |  |  |  |  |  |  |  |  |  |  |  |  |  |  |  |  |  | half-life (CYP1A2; [7]): 0.5 h; intrinsic clearance, CYP isoform 1A2 (CYP1A2; [7]): 231 μL/min/nmol CYP; half-life (CYP2C19; [7]): 0.217 h; intrinsic clearance, CYP isoform 2C19 (CYP2C19; [7]): 526 μL/min/nmol CYP; half-life (CYP2C9; [7]): 2.23 h; intrinsic clearance, CYP isoform 2C9 (CYP2C9; [7]): 52 μL/min/nmol CYP; half-life (CYP3A4; [7]): 0.817 h; intrinsic clearance, CYP isoform 3A4 (CYP3A4; [7]): 142 μL/min/nmol CYP |
| [2H]C([2H])(Cc1c[nH]c2ccccc12)N(C)C [SPL028ii, α,α,-bis-deuterium-N,N-dimethyltryptamine] |  |  | 0.307 | 102.7 | >4 | <29 | >4 | >4 | <29 | >4 | <29 | 2.93 | 39 | 0.4 μl/min/mg microsomal protein | >4 | <29 | >4 | <29 | 0.15 | 801 | intrinsic clearance, CYP isoform 2B6 (CYP2B6): <29 μL/min/nmol CYP; substrate for CYP2C19 (CYP2C19): substrates; % change in half-life, MAO inhibitors vs no inhibitors [4]: 14.69%; % change in intrinsic clearance, MAO inhibitors vs no inhibitors [4]: −19.13%; Intrinsic clearance, with inhibitors [4, 9]: 8.78 μL/min/million cells; Intrinsic clearance, with inhibitors [4, 10]: 8.78 μL/min/million cells; Intrinsic clearance, without inhibitors ([4]; human hepatocytes): 10.46 μL/min/million cells; projected scaled intrinsic clearance, CYP isoform 2D6 (CYP2D6 [1]): 9.5 μl/min/mg microsomal protein; substrate for CYP2D6 (CYP2D6 [5]): substrates |
| CN(C)CCc1c[nH]c2ccccc12 [DMT in SPL028i] |  |  |  |  | >4 |  | >4 | >4 | <29 | >4 | <29 | 2.93 | 40 | 0.4 μl/min/mg microsomal protein | >4 | <29 | >4 | <29 | 0.167 | 687 | projected scaled intrinsic clearance, CYP isoform 2D6 (CYP2D6 [5]): 8.1 μl/min/mg microsomal protein |
| CN(C)CCc1c[nH]c2ccccc12 [DMT in SPL028ii] |  |  |  |  | >4 |  | >4 | >4 | <29 | >4 | <29 | 2.7 | 43 | 0.4 μl/min/mg microsomal protein | >4 | <29 | >4 | <29 | 0.15 | 803 | projected scaled intrinsic clearance, CYP isoform 2D6 (CYP2D6 [5]): 9.5 μl/min/mg microsomal protein |
| [2H]C([2H])(Cc1c[nH]c2ccccc12)N(C)C [SPL028i, α,α,-bis-deuterium-N,N-dimethyltryptamine] |  |  | 0.323 | 97.4 | >4 | <29 | >4 | >4 | <29 | >4 | <29 | 3 | 39 | 0.3 μl/min/mg microsomal protein | >4 | <29 | >4 | <29 | 0.15 | 793 | intrinsic clearance, CYP isoform 2B6 (CYP2B6): <29 μL/min/nmol CYP; substrate for CYP2C19 (CYP2C19): substrates; % change in half-life, MAO inhibitors vs no inhibitors [4]: −5.33%; % change in intrinsic clearance, MAO inhibitors vs no inhibitors [4]: 4.67%; Intrinsic clearance, with inhibitors [4, 9]: 7.50 μL/min/million cells; Half-life, with inhibitors [4, 10]: 2.8292 h; Intrinsic clearance, with inhibitors [4, 10]: 7.5 μL/min/million cells; Half-life, with inhibitors ([4]; human hepatocytes, with MAO-A/B inhibitors (Table 4; unit given only in Table 5)): 2.8292 h; quicker intrinsic clearance in the presence of MAO inhibitors ([4]; human hepatocytes, with vs without MAO inhibitors): ~5%; Intrinsic clearance, without inhibitors ([4]; human hepatocytes): 7.15 μL/min/million cells; projected scaled intrinsic clearance, CYP isoform 2D6 (CYP2D6 [1]): 9.4 μl/min/mg microsomal protein; substrate for CYP2D6 (CYP2D6 [5]): substrates; Intrinsic Clearance [6]: 44.6 μL/min/mg protein |
